In patent US20260224563A1, “CRYSTALLINE FORMS OF 6-(3-((5-CHLORO-2-METHOXYPYRIDINE)-3-SULFONAMIDO)-2,6-DIFLUOROPHENYL)-N-METHYLIMIDAZO[1,5-A]PYRAZINE-1-CARBOXAMIDE AND METHODS FOR USING THE SAME” (HIBERCELL, INC., priority 2023, published 2026):
Where a name gives a salt, the structure may show the parent alone.

What was measured:
[1] = Pharmacokinetics of HC-7366 in male and female beagle dogs following IV and oral administration of HC-7366-K (plasma and urine, LC-MS/MS); format: in vivo, Beagle Dog; set-up: AUC(0-t)/D: unit not given here
[2] = Slurry study of potassium salt Form III in organic solvents and water (XRPD); format: physicochemical; conditions: for Result at 3 days (XRPD): slurry in THF
[3] = Mechanical (grinding) and tableting treatment of Form III of the potassium salt (XRPD); format: physicochemical
Method: Form III of the potassium salt was ground manually (e.g., using a mortar and pestle) for 5 minutes. The ground sample was then analyzed by XRPD. No change in the crystal form was observed.
Tableting treatment of Form III of the potassium salt was conducted at 35 MPa pressure for 10 seconds using a tablet machine (HY-12, Tianjin Tianguang Optical Instrument Co., Ltd). The resulting solid was analyzed by XRPD. No change in the crystal form was observed after the tableting treatment. However, the crystallinity of Form III of the potassium salt decreased after the pressure test.

[4] = Water activity study of the crystalline potassium salt forms (acetone/water suspension, XRPD); format: physicochemical; conditions: KF wt. %>0.19, 25-50° C., KF wt. %~0.1, 25° C. in acetone/water
Method: A water activity study of the potassium salt forms was conducted in two groups: (i) Form I and Form III of the potassium salt, and (ii) Form II and Form III of the potassium salt.
Each suspension was shaken at 700 rpm in a shaker at 25° C., 35° C., 45° C., and 50° C., and the sample was analyzed by XRPD.

SMILES: CNC(=O)c1ncn2cc(-c3c(F)ccc(NS(=O)(=O)c4cc(Cl)cnc4OC)c3F)ncc12 [HC-7366-K, 6-(3-((5-chloro-2-methoxypyridine)-3-sulfonamido)-2,6-difluorophenyl)-N-methylimidazo[1,5-a]pyrazine-1-carboxamide]
- AUC(0-t)/D ([1]; Female Beagle dog, IV 0.5 mg/kg, mean n = 3): 162284
- t1/2 ([1]; Male Beagle dogs, IV 0.5 mg/kg, HC-7366 in plasma, mean n = 3): 14 h
- clearance ([1]; dog, plasma, male beagle dogs, intravenous 0.5 mg/kg, read-out: Clearance (CL)): 6 mL/h/kg
- Vd ([1]; dog, plasma, male beagle dogs, intravenous 0.5 mg/kg, read-out: volume of distribution at steady state (Vss)): 0.107 L/kg
- CL renal ([1]; dog, urine and plasma, female Beagle dogs, intravenous 0.5 mg/kg, read-out: Renal Clearance): 0.0066 mL/h/kg

SMILES: CNC(=O)c1ncn2cc(-c3c(F)ccc(NS(=O)(=O)c4cc(Cl)cnc4OC)c3F)ncc12 [Potassium salt Form III, 6-(3-((5-chloro-2-methoxypyridine)-3-sulfonamido)-2,6-difluorophenyl)-N-methylimidazo[1,5-a]pyrazine-1-carboxamide]
- Result at 3 days (XRPD) ([2]; 25° C.): Potassium salt Form III
- Result at 3 days (XRPD) ([2]; 50° C.): Potassium salt Form III
- Result (XRPD) ([2]; slurry in Water, 25° C., 5 days, repeated aqueous slurry experiments): Potassium salt Form III (5 days)
- Crystallinity ([3]; after tableting treatment at 35 MPa pressure for 10 seconds): decreased
- Change in the crystal form (XRPD) ([3]; ground manually for 5 minutes): No change
- Change in the crystal form (XRPD) ([3]; tableting treatment at 35 MPa pressure for 10 seconds): No change
- Relative stability of crystalline forms ([4]; versus Form I of the potassium salt): more stable
- Relative stability of crystalline forms ([4]; versus Form II of the potassium salt): more stable
